According to PMC4336141, “Repurposing Auranofin as a Lead Candidate for Treatment of Lymphatic Filariasis and Onchocerciasis” (PLoS Neglected Tropical Diseases, 2015):

What was measured:
adult female O. ochengi = assay: Transmission electron microscopy of treated adult female O. ochengi; format: cell-based, Onchocerca ochengi; conditions: 10 μM, 7 days, vs untreated
Protocol: Adult female B. pahangi worms were incubated with either 1 μM, 0.3 μM, or 0.1 μM auranofin, 10 μM flubendazole (as a positive control), or 1% DMSO overnight, then cut into 3 segments separating the anterior, middle and posterior sections. The middle sections were further cut into 1 mm sized pieces in fixative (2.5% glutaraldehyde and 2% paraformaldehyde in 0.1 M sodium cacodylate buffer, pH 7.3–7.4) and stored at 4°C. Middle sections were subsequently treated with 1% tannic acid for 1 hour, followed by three buffer washes before post fixation staining with 2% osmium tetroxide for 1 hour. The samples were washed three times in buffer before dehydration in an ethanol series. Worm sections were then infiltrated with propylene oxide, embedded in epon 812 resin and polymerized in a vacuum oven at 60°C overnight. Ultrathin sections were cut using an RMC MTX ultramicrotome with a Diatome diamond knife followed by post staining of the grids with saturated ethanolic uranyl acetate and Reynolds lead citrate. Samples were imaged on a FEI Tecnai 12 spirit TEM operated at 80 kV. A similar procedure was performed on adult female O. ochengi worm masses that were cultured for 7 days with 10 μM auranofin before fixation of cut pieces of the adult female mass. Untreated adult female masses cultured for 7 days and fixed by the same procedure served as the control.

O. volvulus L3 = assay: Onchocerca volvulus L3 molting inhibition in vitro; format: cell-based; conditions: O. volvulus L3, Day 6, inhibition of molting
Protocol: L3 stage larvae previously collected and cryopreserved in Cameroon were rapidly thawed in a 37°C water bath and washed in incomplete media comprised of a 1:1 ratio of Medium NCTC-109 and IMDM + GlutaMax-I containing 1X glutamine, penicillin, and streptomycin (all from Gibco by Life Technologies, Grand Island, NY). The number of worms was adjusted to about 10 worms per 50 μL in complete medium containing 20% heat inactivated FCS. Worms were distributed into the wells of a 96-well plate containing 50 μL of 1.5 × 10^5 normal human PBMCs. 100 μL of 2X auranofin (final concentrations of 30 μM, 10 μM, 3 μM, 1 μM and 0.3 μM) were added to each well for a final volume of 200 μL. Each concentration was tested in triplicate. Controls included 0.05% DMSO in complete medium and complete medium only with neither DMSO nor compound added. The 96-well plates were then incubated at 37°C in a 5% CO2 incubator for 6 days, then molting was assessed using an inverted microscope. Molting was determined in each well by counting the presence of fourth-stage larvae (L4) and empty casts of the L3. The percent inhibition of molting was calculated based on the number of treated larvae that were able to molt in comparison to the number of control larvae that had successfully molted. Prism 4.0 for Windows was used to calculate IC50s.

[1] = design: method as in PMID 6417628; conditions: patients with rheumatoid arthritis treated for an average of 6 months; cited from earlier work
O. ochengi microfilariae = assay: Onchocerca ochengi microfilariae motility in vitro; format: cell-based; conditions: Day 5
Protocol: O. ochengi microfilariae were obtained from the umbilical skin of infected cattle and cultured on confluent monkey kidney epithelial cells for drug testing as previously described.
Microfilariae (10–15 per well) were cultured in 96-well culture plates in duplicate under the same conditions and drug concentrations as were used for the adult O. ochengi, except that 10 μg/mL ivermectin was used as a positive control. Microfilariae viability was visually scored based on motility reduction using the same scale described above for adult male O. ochengi. Scores were recorded every 24 hours after the addition of drugs for 5 days using an inverted microscope.

glutathione reductase = molecular target: glutathione reductase; design: method as in PMID 9685351; conditions: higher IC50; cited from earlier work
[2] = test system: Recombinant B. malayi TrxR (rBmTrxR); assay: Recombinant B. malayi TrxR (rBmTrxR) DTNB inhibition assay; format: biochemical, Brugia malayi
Protocol: Recombinant 6-His-tagged B. malayi TrxR (rBmTrxR) was produced in E. coli BL21(DE3) in the presence of pSUABC [29] in LB medium supplemented with 20 μg/mL riboflavin under conditions for optimal selenoprotein expression. An overnight starter culture in LB with 50 μg/mL ampicillin and 34 μg/mL chloramphenicol was diluted (1:100) into in LB medium with the same antibiotics. When the culture reached an OD600 = 0.8, the medium was supplemented with 5 μM sodium selenite and 100 μg/mL L-cysteine. When the culture OD600 = 2, riboflavin (20 μg/mL) was added and protein expression was induced by the addition of isopropyl β-D-1-thiogalactopyranoside (50 μM). At this point the cultures were shifted to 24°C and incubated for 24 hr. Cells were collected by centrifugation, lysed by alternative freeze-thaw cycles, and resuspended in lysis buffer (50 mM potassium phosphate, pH 7.8, 500 mM NaCl, 30 mM imidazole, 1 mg/mL lysozyme, 1 mM phenylmethanesulfonylfluoride) supplemented with 100 μM flavin adenine dinucleotide. The sample was sonicated and cellular debris pelleted at 25,000 x g at 4°C for 25 min. The supernatant was collected and filtered through a 0.45 μm filter before purification by immobilized metal ion affinity chromatography using a His-Trap FF column (GE Healthcare). The column was washed with 10 column volumes binding buffer (50 mM potassium phosphate, pH 7.8, 500 mM NaCl, 30 mM imidazole) and then with 5 column volumes of buffer A (binding buffer with 100 mM imidazole). TrxR protein was eluted in 3 × 1 mL buffer B (binding buffer with 500 mM imidazole).Protein was concentrated (Amicon Ultra-4 10K) and purity was verified by SDS-PAGE and quantified by absorbance at 280 nm (ε = 69.76 mM^-1 cm^-1).
rBmTrxR activity was assayed in 0.1 M potassium phosphate (pH 7.2) with 10 mM EDTA and 25 nM rBmTrxR. rBmTxrR was pre-incubated for 20 min with NADPH (100 μM) and auranofin (ICN Pharmaceuticals, now Valeant Pharmaceuticals, Bridgewater, NJ) or aurothioglucose (USP Reference Standards, Rockville, MD) in DMSO in 100 μL, followed by addition of an equal volume of buffer with NADPH (200 μM) and DTNB (6 mM) with reaction progress monitored at λ = 412 nm for TNB production. The concentration of DMSO in all reactions was 3.5%.

Structure (SMILES): CC[PH](CC)(CC)[Au][S][C@@H]1O[C@H](COC(C)=O)[C@@H](OC(C)=O)[C@H](OC(C)=O)[C@H]1OC(C)=O [auranofin, 2,3,4,6-tetra-O-acetyl-1-thio-beta-D-glucopyranosato-S (triethylphosphine) gold]
- ultrastructure (TEM) of adult female O. ochengi (adult female O. ochengi): Numerous vacuoles with inclusion bodies were observed in the muscle tissue below the hypodermal chord
- IC50 (O. volvulus L3): 300 nM
- side effects [1]: few side effects, with the most common side effect being diarrhea
- IC50 (O. ochengi microfilariae): 3000 nM
- IC50 relative to TrxR isolated from human placenta (glutathione reductase): about 1000 fold
- mode of inhibition of rBmTrxR [2]: irreversibly inhibit rBmTrxR at a one-to-one molar ratio
- IC50 ([2]; 25 nM rBmTrxR, 20 min pre-incubation with NADPH, DTNB substrate): 3 nM
